From patent US20230092846A1, “COMBINATION FOR THE TREATMENT OF CANCER AND APPLICATION THEREOF” (EVERFRONT BIOTECH INC., priority 2020, published 2023)
Converted amounts (≈) assume the structure as drawn. Read-outs that look alike come from different tables or passages of the source.

Assays:
PANC-1 cells = test: MTT cell viability analysis, single agents, PANC-1; format: cell-based, human
Procedure: (§1) In this example, the effects of the compound of the present invention and different anticancer medicaments on killing cancer cells were studied by MTT (Thiazolyl Blue tetrazolium bromide, 3-[4,5-dimethylthiahiazo-2-yl]-[…] bromide) cell viability analysis.
(§2) Thereafter, each of the aforesaid cell lines was cultured with cell medium containing gemcitabine, cisplatin, 5-fluorouracil, irinotecan, oxaliplatin, paclitaxel, (Z)-n-butylidenephthalide, (E)-n-butylidenephthalide, 2-pentanolybenzoic acid, sodium 2-pentanoylbenzoate, and butylphthalide, for 24 hours, 48 hours and 72 hours, respectively.

Mia-PaCa2 cells = test: MTT cell viability analysis, single agents, Mia-PaCa2; format: cell-based, human
Procedure: as §1, §2

AsPC-1 cells = test: MTT cell viability analysis, single agents, AsPC-1; format: cell-based, human
Procedure: as §1, §2

Panc02 cells = test: MTT cell viability analysis, single agents, Panc02; format: cell-based, mouse
Procedure: as §1, §2

A549 cell = test: MTT cell viability analysis, single agents, A549; format: cell-based; details: cultured 24, 48 and 72 hours (time of IC50 not given)
Procedure: as §1
(§3) Thereafter, each of the aforesaid cell lines were cultured with cell medium containing 5-fluorouracil, (Z)-n-butylidenephthalide, and 2-pentanolybenzoic acid for 24 hours, 48 hours and 72 hours.

HepG2 cell = test: MTT cell viability analysis, single agents, HepG2; format: cell-based; details: cultured 24, 48 and 72 hours (time of IC50 not given)
Procedure: as §1, §3

HT-29 cell = test: MTT cell viability analysis, single agents, HT-29; format: cell-based; details: cultured 24, 48 and 72 hours (time of IC50 not given)
Procedure: as §1, §3

DBTRG-05MG cell = test: MTT cell viability analysis, single agents, DBTRG-05MG; format: cell-based; details: cultured 24, 48 and 72 hours (time of IC50 not given)
Procedure: as §1, §3

CD44ICD protein = test: Western Blotting of treated Panc02 cells, CD44ICD; format: cell-based, mouse; details: FIG. 1
Procedure: (§4) The Panc02 cells (pancreatic cancer cell line) were cultured with 37.5 and 75 μg/ml of (Z)-n-butylidenephthalide for 6 hours (a portion of cells were harvested after culturing for 3 hours), respectively. Thereafter, proteins of the cells were extracted, and the expressions of CD44 intracellular domain (CD44ICD) protein and PD-L1 protein in the cancer cells treated with (Z)-n-butylidenephthalide were measured by Western Blotting. Furthermore, the expression of GAPDH protein was measured as an internal control.

PD-L1 protein = test: Western Blotting of treated Panc02 cells, PD-L1; format: cell-based, mouse; details: 37.5 and 75 μg/ml, 3 and 6 hours, FIG. 1
Procedure: as §4

[1] = system: Panc02 cells pancreatic tumor; test: Survival of mice with orthotopic Panc02 pancreatic cancer; format: in vivo, C57BL/6J mouse; details: for Fold (as compared to Ctl. group): survival
Procedure: According to the requirements of Institutional Animal Care and Use Committee (IACUC) of Dong Hwa University, C57BL/6J mice were feed in the experimental animal center of Dong Hwa University until 8 to 10 weeks old. Then, the stably constructed Panc02 cells transfected by Luc-eGFP were in-situ injected into the mice pancreases (1×10^6 cells/0.02 ml/mouse). Thereafter, the tumor sizes of mice pancreases were analyzed through the animal imaging results, and the mice were equally divided into nine group depending on their tumor sizes and treated by the following conditions for three to four weeks:
(1) “Control (Ctl.)” group (5 mice): untreated, only orally administering vehicle (containing none of the compound of the present invention and other anticancer medicaments) every day.
(2) “LD” group (5 mice): orally administering a low dose (12.5 mg/kg body weight) of (Z)-n-butylidenephthalide every day.
(3) “HD” group (5 mice): orally administering a high dose (25 mg/kg body weight) of (Z)-n-butylidenephthalide every day.
(4) “Gem” group (5 mice): intraperitoneally injecting 100 mg/kg body weight of gemcitabine (GEM) per three days.
(5) “LD+Gem” group (5 mice): orally administering 12.5 mg/kg body weight of (Z)-n-butylidenephthalide every day, and intraperitoneally injecting 50 mg/kg body weight of gemcitabine (GEM) per three days.
(6) “TS-1” group (5 mice): after orally administering 100 mg/kg body weight of TS-1 every day for five continuous days, stopping the oral administration of TS-1 for two days.
According to the method of Example 4-1, the pancreatic cancer mice were established and the survivals of mice in each group were observed and recorded every day. The results are shown in Table 15 and FIG. 5A to FIG. 5D.

[2] = MTT, cultured 24, 48 and 72 hours (time of IC50 not given)
[3] = Mia-PaCa2, MTT, cultured 24, 48 and 72 hours (time of IC50 not given)
[4] = AsPC-1, MTT, cultured 24, 48 and 72 hours (time of IC50 not given)
[5] = HD group: 25 mg/kg orally every day
[6] = LD group: 12.5 mg/kg orally every day

Compound | IC50 (PANC-1 cells; [2]) [µg/mL] | IC50 (Mia-PaCa2 cells; [3]) [µg/mL] | IC50 (AsPC-1 cells; [4]) [µg/mL] | IC50 (A549 cell; Homo sapiens, read-out: IC50) [µg/mL] | IC50 (HepG2 cell; Homo sapiens, read-out: IC50) [µg/mL] | IC50 (HT-29 cell; Homo sapiens, read-out: IC50) [µg/mL] | IC50 (DBTRG-05MG cell; Homo sapiens, read-out: IC50) [µg/mL] | IC50 (PANC-1 cells; Homo sapiens) [µg/mL] | IC50 (Mia-PaCa2 cells; Homo sapiens, MIA PaCa-2) [µg/mL] | IC50 (AsPC-1 cells; Homo sapiens, ASPC1) [µg/mL] | IC50 (Panc02 cells; Mus musculus) [µg/mL] | also measured
2-pentanolybenzoic acid | 980.5 ± 22.64 | 693.5 ± 19.57 | 490.2 ± 19.69 |  |  |  |  |  |  |  |  | IC50 (Panc02 cells; [2]): 769.9 ± 15.13 µg/mL; IC50 (A549 cell): 795.5 ± 0.02 µg/mL; IC50 (HepG2 cell): 1141.5 ± 0.01 µg/mL; IC50 (HT-29 cell): 443.8 ± 0.04 µg/mL; IC50 (DBTRG-05MG cell): 392.8 ± 0.01 µg/mL
O=c1[nH]cc(F)c(=O)[nH]1 [5-fluorouracil, reference compound] |  |  |  | 8.55 ± 0.22 (≈ 65.7 µM) | 4.44 ± 0.25 (≈ 34.1 µM) | 20.8 ± 0.91 (≈ 160 µM) | 55.5 ± 6.1 (≈ 426 µM) |  |  |  |  | IC50 (PANC-1 cells; Homo sapiens, MTT, cultured 24, 48 and 72 hours (time of IC50 not given), read-out: IC50): 8.45 ± 0.35 µg/mL (≈ 65 µM); IC50 (Mia-PaCa2 cells; Homo sapiens, MIA PaCa-2, Mia-PaCa2, MTT, cultured 24, 48 and 72 hours (time of IC50 not given), read-out: IC50): 4.9 ± 0.27 µg/mL (≈ 37.7 µM); IC50 (AsPC-1 cells; Homo sapiens, ASPC1, AsPC-1, MTT, cultured 24, 48 and 72 hours (time of IC50 not given), read-out: IC50): 25.4 ± 3.91 µg/mL (≈ 195 µM); IC50 (Panc02 cells; Mus musculus, MTT, cultured 24, 48 and 72 hours (time of IC50 not given), read-out: IC50): 0.0673 µg/mL (≈ 0.517 µM)
CCC/C=C1/OC(=O)c2ccccc21 [(E)-n-butylidenephthalide] |  |  |  |  |  |  |  | 779 ± 26.9 (≈ 4140 µM) | 629 ± 16.5 (≈ 3340 µM) | 131 ± 43.3 (≈ 697 µM) | 514 ± 9.21 (≈ 2730 µM) | 
CCC/C=C1\OC(=O)c2ccccc21 [(Z)-n-butylidenephthalide] |  |  |  | 63.6 ± 0.06 (≈ 338 µM) | 81.1 ± 0.02 (≈ 431 µM) | 52.9 ± 0.01 (≈ 281 µM) | 133 (≈ 704 µM) | 41.2 ± 2.81 (≈ 219 µM) | 55.9 ± 1.35 (≈ 297 µM) | 83.3 ± 2.56 (≈ 443 µM) | 32.9 ± 2.33 (≈ 175 µM) | expression of CD44ICD protein (CD44ICD protein; 37.5 and 75 μg/ml, 3 and 6 hours): decreased as the concentration of (Z)-n-butylidenephthalide was increased; expression of CD44ICD protein at 6 hours (CD44ICD protein; 6 hours): completely inhibited; expression of PD-L1 protein (PD-L1 protein): decreased as the concentration of (Z)-n-butylidenephthalide was increased; Average of overall survival [1, 5]: 27.2 ± 0.533 days; Median of overall survival [1, 5]: 27 days; Average of overall survival [1, 6]: 30.6 ± 2.205 days; Median of overall survival [1, 6]: 30 days; survival days compared to Control group and TS-1 group [1, 6]: more than that of “Control” group; Fold (as compared to Ctl. group) [1, 5]: 1.6; Fold (as compared to Ctl. group) [1, 6]: 1.8
CCCCC1OC(=O)c2ccccc21 (centres unmarked) [butylphthalide, Butylphthalide] | >200 | 198.9 ± 7.69 (≈ 1050 µM) | >300 |  |  |  |  |  |  |  |  | 
